Patent US12714680B2, “Composition for anti-aging or skin regeneration comprising Okanin” (POSCO CO., LTD, priority 2020, dated 2026)

Assays:
Type in all cases: cell-based
HaCaT cells [1] = test: Growth and proliferation of keratinocytes (CCK-8 assay); settings: 24 hours, serum-free, vs negative control (DMSO), p<0.05, FIG. 5
Procedure: Cell counting kit-8 (CCK-8) is a water-soluble tetrazolium salt reagent called WST-8 and forms orange-colored water-soluble Formazan by dehydrogenase in the mitochondria of living cells. […] After cultured for 24 hours, the cells were treated with CCK8, and the cell growth was analyzed by measuring absorbance at 450 nm.

EGFR = EGFR (Homo sapiens, UniProt P00533); test: EGFR activity measurement biosensor system (EGFP-SH2 fluorescence signals); settings: 100 μM Okanin; cells cultured in serum-free medium 24 hours; compared to DMSO control; FIG. 1
Procedure: In addition, by using the feature that, when the activities of the EGFR continue to be maintained, the EGFR is internalized into the cell, the cell of the biosensor system that may measure the activities of the EGFR was used in the present experimentation (see Korean Laid-open Patent Publication No. 2019-0014340). […] After culturing the cells in a serum-free medium for 24 hours, the cells were treated with Okanin.

egr1 = test: Gene expression change by real-time quantitative PCR in HaCaT cells: egr1; settings: 10 μM Okanin, 1 hour, serum-free, corrected with β-actin, FIG. 4
Description: (§1) Signaling by an EGFR induces the expression of genes important for cell growth and survival through important signaling mediator proteins such as ERK and AKT. The egr1, c-myc, c-jun and c-fos genes are regulated by the EGFR and are well known as genes that promote cell growth and survival. […] Specifically, Tri-reagent was used for mRNA extraction, cDNA was created by a reverse transcription polymerase chain reaction (RT-PCR) using a poly-A primer and a reverse transcriptase, and real-time quantitative PCR was used to measure the amount of each mRNA. The amount of each mRNA was corrected with the amount of β-actin, which is a constitutive gene.

c-myc = test: Gene expression change by real-time quantitative PCR in HaCaT cells: c-myc; settings: 10 μM Okanin, 1 hour, serum-free, corrected with β-actin, FIG. 4
Description: as §1

AKT = test: Activation (phosphorylation) of AKT by Western blotting in HaCaT cells; settings: serum-free medium, FIG. 3
Procedure: (§2) It is well known that the activities of extracellular signal-regulated kinase (ERK) and protein kinase B (AKT) transmit signals necessary for cell growth and survival by the activities of an EGFR. In addition, in Experimental Example 1, it was observed that Okanin generated signals due to activation of the EGFR in the cells of the biosense system for measuring the activities of the EGFR. Accordingly, it was measured whether the activities of the EGFR were induced by Okanin to the activities of the ERK and AKT. Specifically, HaCaT cells were cultured in a serum-free medium, treated with 10 μM. of Okanin for 10 minutes, 30 minutes and 60 minutes, respectively, and, thereafter, phosphorylated and activated ERK and AKT were analyzed by Western blotting. As antibodies, a phosphorylation antibody as a marker of activated ERK and AKT, and a general antibody for measuring all of them were used, respectively.

c-jun = test: Gene expression change by real-time quantitative PCR in HaCaT cells: c-jun; settings: 10 μM Okanin, 1 hour, serum-free, corrected with β-actin, FIG. 4
Description: as §1

ERK = test: Activation (phosphorylation) of ERK by Western blotting in HaCaT cells; settings: serum-free medium, FIG. 3
Procedure: as §2

c-fos = test: Gene expression change by real-time quantitative PCR in HaCaT cells: c-fos; settings: 10 μM Okanin, 1 hour, serum-free, corrected with β-actin, FIG. 4
Description: as §1

HaCaT cells [2] = test: Cytotoxicity depending on the concentrations of Okanin (cell viability)
Procedure: The cytotoxicity of Okanin was measured using HaCaT cells as keratinocytes. When cells are treated with MTT tetrazolium which is a yellow water-soluble substrate, such a substrate is reduced to MTT formazan by mitochondrial enzymes, and the color changes to blue-purple. That is, since the blue-violet color appears darker as the number of living cells increases, the blue-violet absorbance at a wavelength of 540 nm reflects the concentration of living cells. Specifically, after culturing cells to fill each well of a 96-well plate, the cells were treated with Okanin at concentrations of 0, 10, 25, 50 and 100 μM, and cultured for 24 hours and 48 hours in a 5% CO2 incubator at 37° C. Thereafter, cell viability was measured using MIT reagent. A control group not treated with Okanin (0 μM) was treated with the same amount of the solvent DMSO.

HaCaT cells [3] = test: Wound healing assay; settings: 1 μM Okanin, culture for 6 days, serum-free; vs negative control; significant difference from the 3rd day (p<0.05); FIGS. 6A, 6B
Procedure: The cell growth promoting effect of Okanin was confirmed through Wound healing assay. Specifically, after fully culturing HaCaT cells in a 12-well plate, cells on a certain area were scraped off using a yellow tip to form a wound area, changed to a serum-free medium, and treated with 1 μM of Okanin.

HaCaT cells [4] = test: Resistance to cell damage induced by UVB (cell viability, CCK-8); settings: 1 μM Okanin, UVB 500 mJ/cm2, serum-free, negative control about 40%, p<0.05, FIG. 7
Procedure: Among the ultraviolet wavelengths, UVB wavelengths corresponding to 280 to 315 nm penetrate the epidermal layer where many keratinocytes exist to cause cell damage. […] The solvent DMSO was used as a negative control group, and the cell viability was measured using the CCK-8 method used in Experimental Example 5.

Sequence of EGFR (P00533 25-1210, species assumed): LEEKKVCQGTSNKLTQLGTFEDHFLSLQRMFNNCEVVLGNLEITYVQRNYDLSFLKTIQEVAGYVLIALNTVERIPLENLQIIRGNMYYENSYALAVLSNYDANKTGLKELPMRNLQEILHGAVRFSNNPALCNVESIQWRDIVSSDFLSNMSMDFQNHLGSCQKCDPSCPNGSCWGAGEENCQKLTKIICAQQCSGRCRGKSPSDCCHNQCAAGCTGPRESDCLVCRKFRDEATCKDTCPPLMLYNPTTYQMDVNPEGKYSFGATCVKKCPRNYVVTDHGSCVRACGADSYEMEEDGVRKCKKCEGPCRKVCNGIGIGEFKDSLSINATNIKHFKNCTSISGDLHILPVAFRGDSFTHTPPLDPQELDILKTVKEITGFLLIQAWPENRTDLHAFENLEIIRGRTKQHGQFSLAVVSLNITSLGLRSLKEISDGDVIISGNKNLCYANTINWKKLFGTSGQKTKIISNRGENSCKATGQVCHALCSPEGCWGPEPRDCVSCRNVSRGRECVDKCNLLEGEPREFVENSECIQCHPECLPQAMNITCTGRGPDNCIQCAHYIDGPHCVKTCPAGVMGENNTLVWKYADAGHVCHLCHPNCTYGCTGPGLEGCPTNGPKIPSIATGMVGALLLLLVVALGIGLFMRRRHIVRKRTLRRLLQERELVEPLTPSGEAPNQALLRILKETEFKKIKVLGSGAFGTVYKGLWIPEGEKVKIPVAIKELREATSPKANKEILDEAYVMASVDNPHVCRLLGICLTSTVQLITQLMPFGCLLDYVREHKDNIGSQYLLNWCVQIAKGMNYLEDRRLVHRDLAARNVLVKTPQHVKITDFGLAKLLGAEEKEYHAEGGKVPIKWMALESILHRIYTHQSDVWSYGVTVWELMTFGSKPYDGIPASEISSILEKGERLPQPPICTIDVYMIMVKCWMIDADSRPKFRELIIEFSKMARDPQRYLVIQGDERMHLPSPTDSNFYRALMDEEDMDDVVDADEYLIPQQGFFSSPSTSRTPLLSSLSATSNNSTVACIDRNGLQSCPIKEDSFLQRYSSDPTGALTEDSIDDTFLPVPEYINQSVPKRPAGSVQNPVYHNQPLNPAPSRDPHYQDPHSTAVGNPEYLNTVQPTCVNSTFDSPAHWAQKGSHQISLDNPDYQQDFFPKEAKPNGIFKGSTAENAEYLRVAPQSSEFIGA

EGFR activation (fluorescence signals of biosensor cells) (EGFR): activated
SMILES: O=C(/C=C/c1ccc(O)c(O)c1)c1ccc(O)c(O)c1O [Okanin, 2′,3,3′,4,4′-pentahydroxychalcone]
growth and proliferation of cells (HaCaT cells [1]; 100 nM Okanin): significantly increased | growth and proliferation of cells (HaCaT cells [1]; 1 μM Okanin): significantly increased | growth and proliferation of cells (HaCaT cells [1]; 10 μM Okanin): significantly increased | egr1 mRNA (egr1): increased | c-myc mRNA (c-myc): increased | induction of the activities of AKT (AKT; 10 μM Okanin for 10 minutes): sufficiently induced | time within which AKT was rapidly activated (AKT; 10 μM Okanin): ≤ 30 min | c-jun mRNA (c-jun): increased | induction of the activities of ERK (ERK; 10 μM Okanin for 10 minutes): sufficiently induced | time within which ERK was rapidly activated (ERK; 10 μM Okanin): ≤ 30 min | c-fos mRNA (c-fos): increased | cytotoxicity (HaCaT cells [2]; 25 μM, cultured 24 hours and 48 hours, FIG. 2): some cytotoxicity | cytotoxicity (HaCaT cells [2]; 50 μm, cultured 24 hours and 48 hours, FIG. 2): some cytotoxicity | cytotoxicity (HaCaT cells [2]; concentration of 10 μM or less): free of cytotoxicity | filling of the wound area (HaCaT cells [3]): more quickly filled | cells survived after UVB (HaCaT cells [4]): about 60%
